melting point [°C]	SMILES
200	Cn1cnnc1C(O)(c1ccc(Cl)cc1)c1ccc2c(c1)c(CCc1cccc(Cl)c1)cc(=O)n2C (stereo not shown) [Example B20, 4-[2-(3-chlorophenyl)ethyl]-6-[(4-chlorophenyl)hydroxy(4-methyl-4H-1,2,4-triazol-3-yl)methyl]-1-methyl-2(1H)-quinolinone]
165	Cn1cncc1C(N)(c1ccc(Cl)cc1)c1ccc2c(c1)c(CCc1cccc(Cl)c1)cc(=O)n2C (stereo not shown) [Example B3, 6-[amino(4-chlorophenyl)(1-methyl-1H-imidazol-5-yl)methyl]-4-[2-(3-chlorophenyl)ethyl]-1-methyl-2(1H)-quinolinone]
189	CCOC(=O)c1c(Oc2cccc(Cl)c2)c2cc(C(c3ccc(Cl)cc3)c3cnc(-c4ccccc4)[nH]3)ccc2[nH]c1=O (stereo not shown) [Example B4 F2, 4-(3-chlorophenoxy)-6-[(4-chlorophenyl)(2-phenyl-1H-imidazol-5-yl)methyl]-1,2-dihydro-2-oxo-3-quinolinecarboxylic acid ethyl ester]
218	CN(C(=O)c1cc(=O)n(C)c2ccc(C(O)(c3ccc(Cl)cc3)c3cncn3C)cc12)c1cccc(Cl)c1 (stereo not shown) [Example B11, N-(3-chlorophenyl)-6-[(4-chlorophenyl)hydroxy(1-methyl-1H-imidazol-5-yl)methyl]-1,2-dihydro-N,1-dimethyl-2-oxo-4-quinolinecarboxamide]
185	Cc1cccc(N(C)C(=O)c2cc(=O)n(C)c3ccc(C(O)(c4ccc(Cl)cc4)c4cncn4C)cc23)c1 (stereo not shown) [Example B12, 6-[(4-chlorophenyl)hydroxy(1-methyl-1H-imidazol-5-yl)methyl]-1,2-dihydro-N,1-dimethyl-N-(3-methylphenyl)-2-oxo-4-quinolinecarboxamide]
90	Cn1c(=O)cc(CCc2cccc(Cl)c2)c2cc(C(N)(c3ccc(Cl)cc3)c3cccnc3)ccc21 (stereo not shown) [Example B15, 6-[amino(4-chlorophenyl)-3-pyridinylmethyl]-4-[2-(3-chlorophenyl)ethyl]-1-methyl-2(1H)-quinolinone]
115	Cn1c(=O)cc(CCc2cccc(Cl)c2)c2cc(C(O)(c3ccc(Cl)cc3)c3cccnc3)ccc21 (stereo not shown) [Example B14, 4-[2-(3-chlorophenyl)ethyl]-6-[(4-chlorophenyl)hydroxy-3-pyridinylmethyl]-1-methyl-2(1H)-quinolinone]
246	O=c1[nH]c2ccc(C(c3ccc(Cl)cc3)n3ccnc3-c3ccccc3)cc2c(Oc2cccc(Cl)c2)c1CO (stereo not shown) [Example B5, 4-(3-chlorophenoxy)-6-[(4-chlorophenyl)(2-phenyl-1H-imidazol-1-yl)methyl]-3-(hydroxymethyl)-2(1H)-quinolinone]
190	Cn1cncc1C(O)(c1ccc(Cl)cc1)c1ccc2c(c1)c(CCc1cccc(Cl)c1)cc(=O)n2C (stereo not shown) [Example B2, 4-[2-(3-chlorophenyl)ethyl]-6-[(4-chlorophenyl)hydroxy(1-methyl-1H-imidazol-5-yl)methyl]-1-methyl-2(1H)-quinolinone]
233.3	O=c1cc(Oc2ccccc2)c2cc(C(c3ccc(Cl)cc3)n3ccnc3)ccc2[nH]1 (racemic) [Example B1, (±)-6-[(4-chlorophenyl)-1H-imidazol-1-ylmethyl]-4-phenoxy-2(1H)-quinolinone]

— patent US7129356B2, “Farnesyl transferase inhibiting 4-substituted quinoline and quinazoline derivatives” (Janssen Pharmaceutica N.V., priority 2000, dated 2006)
